# In patent publication EP0479888B1, “IMPROVED BUILDER-CONTAINING AQUEOUS CLEANER/DEGREASER MICROEMULSION COMPOSITIONS” (BUCKEYE INTERNATIONAL, INC., priority 1989, dated 1991):
# Settings: water
smiles,measurement,value
CCCCOC(C)=O [n-butyl acetate],aqueous ambient temperature solubility,0.7 wt.%
